Reference: US20210300913A1, “DEUTERATED DERIVATIVES OF LANIFIBRANOR” (lNVENTlVA, priority 2018, published 2021)

Tests used:
Type in all cases: cell-based
[1] = target: T1, human receptor PPARγ-Gal4 (Homo sapiens, UniProt P37231); assay: PPAR-Gal4 transactivation test in transfected Cos-7 cells (luciferase reporter), PPARγ; conditions: for EC50: Cos-7 cells, overnight incubation; for Human receptor PPARγ Top: induction as percentage of reference rosiglitazone at 10^-6 M (=100%)
T1 sequence (P37231 238-505 limits assumed): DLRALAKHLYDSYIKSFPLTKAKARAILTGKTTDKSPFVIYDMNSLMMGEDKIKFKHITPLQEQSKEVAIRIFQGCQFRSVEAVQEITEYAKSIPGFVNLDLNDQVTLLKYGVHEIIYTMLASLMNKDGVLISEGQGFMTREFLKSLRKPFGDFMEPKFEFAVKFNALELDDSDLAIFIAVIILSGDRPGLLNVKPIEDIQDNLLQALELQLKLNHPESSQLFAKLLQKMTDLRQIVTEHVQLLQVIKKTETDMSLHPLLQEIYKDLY
Procedure: (§1) A transactivation test was used as the primary screening test. Cos-7 cells were transfected with a plasmid expressing a chimera of a murine or human receptor PPAR-Gal4 (receptor PPARα-Gal4 or PPARδ-Gal4 or PPARγ-Gal4) and of a reporter plasmid 5Gal4pGL3 TK Luc. The transfections were carried out using a chemical agent (Jet PEI). Transfected cells were distributed into 384 well plates and allowed to stand for 24 hours. At 24 hours the culture medium was changed. The products to be tested were added (final concentration between 10^−4 and 3.10^−10 M) to the culture medium. After overnight incubation, luciferase expression was measured after addition of “SteadyGlo” according to the manufacturer's instructions (Promega).
(§2) Fenofibric acid at 10^−5 M (PPARα agonist), GW501516 at 10^−8 M (PPARδ agonist) and rosiglitazone at 10^−6 M (PPARγ agonist) were used as references.
(§3) The results are expressed as the induction rate (number of times) compared to the basal level as a percentage of activity of the adequate reference (reference=100%). Effect-concentration curves and EC50 were calculated using Assay Explorer (MDL) software.

[2] = target: T2, human receptor PPARδ-Gal4 (Homo sapiens, UniProt Q03181); assay: PPAR-Gal4 transactivation test in transfected Cos-7 cells (luciferase reporter), PPARδ; conditions: for EC50: Cos-7 cells, overnight incubation; for Human receptor PPARδ Top: induction as percentage of reference GW501516 at 10^-8 M (=100%)
T2 sequence (Q03181 171-441 limits assumed): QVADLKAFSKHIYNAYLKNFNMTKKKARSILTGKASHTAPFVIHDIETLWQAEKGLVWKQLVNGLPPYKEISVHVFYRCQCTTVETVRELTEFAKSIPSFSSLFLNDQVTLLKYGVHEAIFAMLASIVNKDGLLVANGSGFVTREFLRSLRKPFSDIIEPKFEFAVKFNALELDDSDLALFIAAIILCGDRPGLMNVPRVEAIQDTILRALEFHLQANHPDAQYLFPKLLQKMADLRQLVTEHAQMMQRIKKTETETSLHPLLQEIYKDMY
Procedure: as §1, §2, §3

[3] = target: T3, human receptor PPARα-Gal4 (Homo sapiens, UniProt Q07869); assay: PPAR-Gal4 transactivation test in transfected Cos-7 cells (luciferase reporter), PPARα; conditions: for EC50: Cos-7 cells, overnight incubation; for Human receptor PPARα Top: induction as percentage of reference fenofibric acid at 10^-5 M (=100%)
T3 sequence (Q07869 200-468 limits assumed): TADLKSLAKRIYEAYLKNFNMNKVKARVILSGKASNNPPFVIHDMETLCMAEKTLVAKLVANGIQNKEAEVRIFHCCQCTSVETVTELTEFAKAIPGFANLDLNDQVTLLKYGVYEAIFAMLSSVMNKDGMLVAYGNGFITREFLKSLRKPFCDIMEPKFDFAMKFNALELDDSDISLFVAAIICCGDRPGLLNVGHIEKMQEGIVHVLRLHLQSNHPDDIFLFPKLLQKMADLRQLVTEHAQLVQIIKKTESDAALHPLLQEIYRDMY
Procedure: as §1, §2, §3

Row | SMILES | EC50 [1] [nM] | Human receptor PPARγ Top [1] [%] | EC50 [2] [nM] | Human receptor PPARδ Top [2] [%] | EC50 [3] [nM] | Human receptor PPARα Top [3] [%]
1 | [2H]C([2H])(C(=O)O)C([2H])([2H])C([2H])([2H])c1cc2cc(Cl)ccc2n1S(=O)(=O)c1ccc2ncsc2c1 [Example 2, 4-[1-(1,3-Benzothiazol-6-ylsulfonyl)-5-chloro-indol-2-yl]-2,2,3,3,4,4-hexadeuteriobutanoic acid] | 136 | 50 | 1180 | 80 | 2280 | 62
2 | O=C(O)CCCc1cc2cc(Cl)ccc2n1S(=O)(=O)c1ccc2ncsc2c1 [Example 1] | 85 | – | 952 | – | 2320 | –
3 | [2H]c1nc2ccc(S(=O)(=O)n3c(CCCC(=O)O)cc4cc(Cl)ccc43)cc2s1 [Example 1] | – | 53 | – | 80 | – | 67
